Source: US20020082452A1, “alpha-sulfin-and alpha-sulfonamino acid amides” (priority 1998, published 2002)

Experiments:
[1] = test system: Plasmopara viticola; assay: D-1: Action against Plasmopara viticola on vines (residual-protective and residual-curative action); assay type: in vivo; settings: vine seedlings, spray mixture 0.02% active ingredient, evaluated after 6 days at 95-100% relative humidity and 20° C.
Experimental: D-1: Action against Plasmopara viticola on Vines a) Residual-Protective Action
Vine seedlings are sprayed at the 4- to 5-leaf stage with a spray mixture (0.02% active ingredient) prepared from a wettable powder formulation of the test compound. After 24 hours, the treated plants are infected with a sporangia suspension of the fungus. Fungus infestation is evaluated after incubation for 6 days at 95-100% relative humidity and 20° C. […]
b) Residual-Curative Action
Vine seedlings are infected at the 4- to 5-leaf stage with a sporangia suspension of the fungus. After incubation for 24 hours in a humidity chamber at 95-100% relative humidity and 20° C., the infected plants are dried and sprayed with a spray mixture (0.02% active ingredient) prepared from a wettable powder formulation of the test compound. After the spray coating has dried, the treated plants are placed in the humidity chamber again. Fungus infestation is evaluated 6 days after infection. […] Compounds A1.02, A1.03, A1.04, A1.03, A1.5, A1.06, A1.07, A1.09, A1.10, A1.13, A1.14, A1.15, A1.16, A1.21, A1.23.

[2] = test system: Phytophthora; assay: D-2: Action against Phytophthora on tomato plants (residual-protective and systemic action); assay type: in vivo; settings: spray mixture 0.02% active ingredient (sprayed or watered), evaluated after 4-5 days at 90-100% relative humidity and 20° C.
Experimental: D-2: Action Against Phytophthora on Tomato Plants
(§1) a) Residual-Protective Action
(§2) After a cultivation period of 3 weeks, tomato plants are sprayed with a spray mixture (0.02% active ingredient) prepared from a wettable powder formulation of the test compound. After 48 hours, the treated plants are infected with a sporangia suspension of the fungus. Fungus infestation is evaluated after incubation of the infected plants for 5 days at 90-100% relative humidity and 20° C.
as §2, with “watered” for “sprayed”, “ingredient based on the volume of the soil)” for “ingredient)”, “compound. […]” for “compound.”, “96” for “48”, “4” for “5”, “C. […] Compounds A1.02, A1.03, A1.04, A1.03, A1.05, A1.06, A1.07, A1.09, A1.10, A1.13, A1.14, A1.15, A1.16, A1.21, A1.23.” for “C.”

[3] = test system: Phytophthora; assay: D-3: Action against Phytophthora on potato plants (residual-protective and systemic action); assay type: in vivo; settings: potato plants (Bintje variety), spray mixture 0.02% active ingredient (sprayed or watered), evaluated after 4 days at 90-100% relative humidity and 20° C.
Experimental: D-3 Action Against Phytophthora on Potato Plants
as §1
(§3) 2-3 week old potato plants (Bintje variety) are sprayed with a spray mixture (0.02% active ingredient) prepared from a wettable powder formulation of the test compound. After 48 hours, the treated plants are infected with a sporangia suspension of the fungus. Fungus infestation is evaluated after incubation of the infected plants for 4 days at 90-100% relative humidity and 20° C.
as §3, with “watered” for “sprayed”, “ingredient based on the volume of the soil)” for “ingredient)”, “compound. […]” for “compound.”, “C. Fungal infestation is effectively controlled with compounds of Tables 1 to 37. Compounds A1.02, A1.03, A1.04, A1.03, A1.05, A1.06, A1.07, A1.09, A1.10, A1.13, A1.14, A1.15, A1.16, A1.21, A1.23.” for “C.”

SMILES	melting point	Fungus infestation [1]	Fungus infestation [2]	Fungus infestation [3]
CCS(=O)(=O)N[C@H](C(=O)NCCc1ccc(OCCOc2ccc(F)cc2)c(OC)c1)C(C)C	124 to 125 °C	–	–	–
COc1cc(CCNC(=O)[C@@H](NS(C)(=O)=O)C(C)C)ccc1OC/C=C/c1ccc(Br)cc1 [Compound A2.16]	–	completely inhibit fungal infestation	completely inhibit fungal infestation	completely inhibit fungal infestation
CCS(=O)(=O)N[C@H](C(=O)NCCc1ccc(OC/C=C\c2ccccc2)c(OC)c1)C(C)C [Compound A3.02]	–	completely inhibit fungal infestation	completely inhibit fungal infestation	completely inhibit fungal infestation
CCS(=O)(=O)N[C@H](C(=O)NCCc1ccc(OC/C=C\c2ccc(Cl)cc2)c(OC)c1)C(C)C [Compound A3.03, Z-(S)-N-(2-{4-[3-(4-Chloro-phenyl)-allyloxy]-3-methoxy-phenyl}-ethyl)-2-ethanesulfonylamino-3-methyl-butyramide]	141 to 143 °C	completely inhibit fungal infestation	completely inhibit fungal infestation	completely inhibit fungal infestation
